The values that follow come from US8648076B2, “Cysteine protease inhibitors and their therapeutic applications” (Hybrigenics SA, priority 2005, dated 2014).

One experiment concerns the target Cathepsin B (Homo sapiens, UniProt P07858). Briefly: Cathepsin B activity assay. The conditions noted are these: 36 μM z-RR-AMC, 3.6 nM enzyme, 30 min pre-incubation at 25° C., 60 min at 37° C.; sigmoidal fit; AF: Autofluorescent; read-out: cathepB (inhibition of cysteine protease activity). The format is biochemical. The method in brief: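 Cathepsin B (3.6 nM) pre-incubated with compound 30 min at 25° C in 20 mM Tris HCl pH 6.8, EDTA, DTT, then reacted with 36 μM z-RR-AMC 60 min at 37° C, stopped with acetic acid. AMC fluorescence read; % of no-compound control fitted to variable-slope sigmoidal model.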

A further experiment has as its target T1, Caspase 3 (Homo sapiens, UniProt P42574).
T1 sequence (P42574 29-175 limits assumed): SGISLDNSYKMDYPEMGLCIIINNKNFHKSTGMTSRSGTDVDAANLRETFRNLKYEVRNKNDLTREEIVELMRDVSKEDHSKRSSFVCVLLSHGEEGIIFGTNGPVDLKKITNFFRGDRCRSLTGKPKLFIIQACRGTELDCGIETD
T1 sequence (P42574 176-277 limits assumed): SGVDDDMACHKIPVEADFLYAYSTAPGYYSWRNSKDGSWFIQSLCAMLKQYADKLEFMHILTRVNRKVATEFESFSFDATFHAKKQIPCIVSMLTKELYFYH
As to the kind of experiment: Caspase 3 activity assay. The conditions noted are these: 500 nM Ac-DEVD-AMC, 3.2 nM enzyme, 30 min pre-incubation at 25° C., 60 min at 37° C.; sigmoidal fit; AF: Autofluorescent; read-out: Casp3 (inhibition of cysteine protease activity). The format is biochemical. Summed up:
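Compounds were pre-incubated with caspase 3 for 30 min at 25 °C, then Ac-DEVD-AMC (500 nM) was added and reactions ran 60 min at 37 °C under initial-velocity conditions. Acetic acid stopped the reaction before AMC fluorescence was read. Activity as % of no-compound control was fitted to a variable-slope sigmoid.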

In experiment [1] the test system is HCT116 colon cancer cells. Briefly: HCT116 cell viability and proliferation assay (MTS). The conditions noted are these: Homo sapiens, HCT-116, 72 h, read-out: HCT116 D3 GI50. The format is cell-based.
The next experiment has as its target T2, USP8 (Homo sapiens, UniProt P40818).
T2 sequence (P40818 1-1118): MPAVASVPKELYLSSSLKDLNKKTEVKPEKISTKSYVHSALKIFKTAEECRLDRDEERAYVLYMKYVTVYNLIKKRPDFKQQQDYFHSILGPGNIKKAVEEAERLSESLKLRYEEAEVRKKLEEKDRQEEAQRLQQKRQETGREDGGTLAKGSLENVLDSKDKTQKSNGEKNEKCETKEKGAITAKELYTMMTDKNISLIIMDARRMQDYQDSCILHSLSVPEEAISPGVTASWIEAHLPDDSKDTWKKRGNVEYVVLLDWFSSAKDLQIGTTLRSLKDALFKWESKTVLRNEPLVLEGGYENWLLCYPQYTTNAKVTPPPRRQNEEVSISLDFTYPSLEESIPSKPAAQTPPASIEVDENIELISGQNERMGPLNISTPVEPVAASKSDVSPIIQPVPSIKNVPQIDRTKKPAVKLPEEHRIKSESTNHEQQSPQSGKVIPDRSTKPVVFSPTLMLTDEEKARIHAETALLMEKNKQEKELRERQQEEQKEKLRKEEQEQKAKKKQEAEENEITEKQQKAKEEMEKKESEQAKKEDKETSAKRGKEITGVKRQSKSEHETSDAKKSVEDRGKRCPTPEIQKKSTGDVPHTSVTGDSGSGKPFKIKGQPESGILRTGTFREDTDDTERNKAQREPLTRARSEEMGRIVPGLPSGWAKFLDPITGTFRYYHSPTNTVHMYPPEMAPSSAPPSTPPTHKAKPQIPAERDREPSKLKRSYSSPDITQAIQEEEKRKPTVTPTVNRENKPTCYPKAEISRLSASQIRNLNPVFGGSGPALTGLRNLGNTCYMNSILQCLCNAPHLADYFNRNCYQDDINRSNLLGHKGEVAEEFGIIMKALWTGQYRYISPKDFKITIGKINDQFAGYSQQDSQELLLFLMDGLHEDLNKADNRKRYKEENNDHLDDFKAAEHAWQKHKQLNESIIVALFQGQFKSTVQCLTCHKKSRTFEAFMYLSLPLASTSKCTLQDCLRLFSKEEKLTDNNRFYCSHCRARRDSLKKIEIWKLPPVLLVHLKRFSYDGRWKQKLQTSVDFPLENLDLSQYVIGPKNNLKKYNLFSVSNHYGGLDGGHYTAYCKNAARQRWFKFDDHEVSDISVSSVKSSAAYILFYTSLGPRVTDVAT
As to the kind of experiment: USP8 activity assay. It is filed as biochemical. The conditions noted are these: 400 nM Ub-AMC, pH8.8, 30 min pre-incubation at 25° C., 60 min at 37° C.; sigmoidal fit; AF: Autofluorescent; read-out: USP 8 (inhibition of cysteine protease activity).

The subject of experiment [2] is PC-3 prostate cancer cells. As to the kind of experiment: PC3 cell viability and proliferation assay (MTS). The format is cell-based. The conditions noted are these: Homo sapiens, PC-3, 72 h, read-out: PC3 D3 GI50.

pIC50: −log10 of the molar value.

In general, GI50 refers to the concentration giving 50% growth inhibition. As for `N#Cc1nc2c(nc1C#N)-c1ccccc1C2=NOCCOc1ccccc1` [Example 27a, 9-(2-Phenoxy-ethoxyimino)-9H-indeno[1,2-b]pyrazine-2,3-dicarbonitrile], the pIC50 at Cathepsin B was below 4.00; on Caspase 3, below 4.00; at USP8, 5.64. The GI50 in experiment [1] was found to be 549 nM; in experiment [2] it was 1000 nM.

With `N#Cc1nc2c(nc1C#N)-c1ccc(Cl)cc1C2=NOCCOc1ccccc1` [Example 27b, 7-Chloro-9-(2-phenoxy-ethoxyimino)-9H-indeno[1,2-b]pyrazine-2,3-dicarbonitrile], the pIC50 on Cathepsin B was below 4.00; at Caspase 3, below 4.00; on USP8, 4.95. Further, the GI50 in experiment [1] worked out at 294 nM; in experiment [2], 259 nM.

With `CCc1ccc2c(c1)-c1nc(C#N)c(C#N)nc1C2=O` [Example 32, 6-ethyl-9-oxo-9H-indeno[1,2-b]pyrazine-2,3-dicarbonitrile], the pIC50 at Cathepsin B was 4.16; at Caspase 3, 5.44; at USP8, 6.95. In addition, the GI50 in experiment [1] is 385 nM; in experiment [2], 1430 nM.

As for `C=CCON=C1c2ccccc2-c2nc(C(N)=O)c(C#N)nc21` [Example 34a, 9-Allyloxyimino-2-cyano-9H-indeno[1,2-b]pyrazine-3-carboxylic acid amide], the figures for the pIC50 on Cathepsin B, on Caspase 3 and at USP8 were 5.46, 6.61 and 7.24, respectively. In addition, the figures for the GI50 in experiment [1] and in experiment [2] were 496 nM and 511 nM, respectively.

As for `CCON=C1c2ccccc2-c2nc(C(N)=O)c(C#N)nc21` [Example 34b, 2-Cyano-9-ethoxyimino-9H-indeno[1,2-b]pyrazine-3-carboxylic acid amide], the pIC50 is below 4.00 at Cathepsin B, 6.20 at Caspase 3 and 7.20 on USP8. For the same compound, the GI50 amounted to 469 nM in experiment [1] and 479 nM in experiment [2].

`COCCON=C1c2ccccc2-c2nc(C(N)=O)c(C#N)nc21` [Example 34c, 2-Cyano-9-(2-methoxy-ethoxyimino)-9H-indeno[1,2-b]pyrazine-3-carboxylic acid amide]: the pIC50 at Cathepsin B is below 4.00; at Caspase 3, 5.91; at USP8 it was 7.15. Moreover, the GI50 in experiment [1] was 378 nM; in experiment [2], 362 nM.

Consider `CON=C1c2ccccc2-c2nc(C(N)=O)c(C#N)nc21` [Example 34d, 2-Cyano-9-methoxyimino-9H-indeno[1,2-b]pyrazine-3-carboxylic acid amide], for which the pIC50 is 5.95 at Cathepsin B, 6.88 at Caspase 3 and 7.54 on USP8. Further, the results for the GI50 in experiment [1] and in experiment [2] were 916 nM and 1200 nM, respectively.

For `N#Cc1nc2c(nc1O)-c1ccc(Cl)cc1C2=O` [Example 42, 7-chloro-3-hydroxy-9-oxo-9H-indeno[1,2-b]pyrazine-2-carbonitrile], the pIC50 at Cathepsin B, on Caspase 3 and on USP8 was below 4.00 throughout. The concentration for 50% growth inhibition (GI50) in experiment [1] and in experiment [2] was above 10000 nM in each case.

For `N#Cc1nc2c(nc1C#N)-c1ccc(Cl)cc1C2=NNC(N)=O` [Example 43, 9-[(aminocarbonyl)hydrazono]-7-chloro-9H-indeno[1,2-b]pyrazine-2,3-dicarbonitrile], the pIC50 on Cathepsin B is below 4.00; at Caspase 3 it was 4.19; on USP8 it was 6.09. Further, the GI50 in experiment [1] was 512 nM; in experiment [2], 655 nM.
